Results reported in patent publication US8785452B2, “Anti-infective compounds” (priority 2008, dated 2014).
Where two headings read alike, the source gives them in different places.

How the values were obtained:
[1] = test system: M. tuberculosis H37Rv-GFP; assay: microbe, parasite or virus in culture; type: cell-based, Mycobacterium tuberculosis; conditions: Mycobacterium tuberculosis, H37RV, Macrophage
Raw264.7 cells [2] = conditions: mouse
Raw264.7 cells [3] = assay: Cell number (CellNb) from image analysis of the phenotypic cell-based assay; conditions: for QIM Confirm CellNb 2 uM: confirmation
[4] = confirmation, 20 uM, read-out: QIM Confirm % Inhibition 20 uM
[5] = primary screen, 20 μM, read-out: Primary QIM % Inhibition

Row | Compound | inhibition at 20 µM [1, 4] | inhibition at 20 µM [1, 5] | Primary QIM CellNb (Raw264.7 cells [2]; 5 days, 20 μM) | Primary QIM CellNb (Raw264.7 cells [3]; primary screen, 20 μM) | inhibition at 20 µM ([1]; read-out: Primary QIM % Inhibition) | inhibition at 20 µM ([1]; read-out: QIM Confirm % Inhibition 20 uM) | Primary QIM CellNb (Raw264.7 cells [2]) | Primary QIM CellNb (Raw264.7 cells [3]) | QIM Confirm CellNb 2 uM (Raw264.7 cells [2]; 5 days) | QIM Confirm CellNb 2 uM (Raw264.7 cells [3])
1 | O=C(N/N=C/c1ccc(Cl)cc1Cl)c1ccncc1 [IPK 000 043 13] | 104% | 49.2% | 101.6 | 177.8 |  |  |  |  |  | 
2 | O=C(Nc1ccc(Cl)cc1[N+](=O)[O-])c1ccc([N+](=O)[O-])cc1Cl [IPK 000 049 00] |  |  |  |  | 32.1% | 74.2% | 72.2 | 108.0 |  | 
3 | CCOC(=O)/C=C/C(=O)NNC(=O)c1cccs1 [IPK 000 109 99] | 28.1% | 8.5% | 20.3 | 183.0 |  |  |  |  | 101.3 | 174.3
4 | Oc1ccc(Br)cc1/C=N/c1ccccc1O [IPK 000 043 83] | 31.3% | -80.9% | 17.1 | 89.0 |  |  |  |  |  | 
5 | Cc1nn(C)cc1/C=N/NC(=O)c1ccncc1 [IPK 000 079 13] | 102% | 69.6% | 97.8 | 294.0 |  |  |  |  |  | 
6 | O=C(Nc1sc2c(c1C(=O)Nc1ccccc1)CCC2)c1ccccc1Cl [IPK 000 073 68] | 92.6% | 88.2% | 74.7 | 202.3 |  |  |  |  |  | 
7 | O=C(CS)Nc1ccccc1Cl [IPK 000 108 27] | 44.1% | 54.7% | 19.0 | 171.0 |  |  |  |  |  | 
8 | CCOc1cc(/C=N/NC(=O)c2ccncc2)ccc1O [IPK 000 042 99] | 106% | 103% | 104.1 | 364.0 |  |  |  |  |  | 
9 | CCCCN(CCCC)C(=O)c1ccc(C(C)(C)C)cc1 [IPK 000 067 60] | 46.6% | 63.4% | 25.8 | 164.3 |  |  |  |  | 99.7 | 179.1
10 | CCC(C)c1ccc(NC(=O)c2ccc(Cl)c([N+](=O)[O-])c2)cc1 (centres unmarked) [IPK 000 048 71] | 70% | 62.1% | 22.6 | 56.5 |  |  |  |  |  | 
11 | C=C(N/N=C/c1cccc(C)n1)c1nn(Cc2ccc(Br)cc2)cc1Br [IPK 000 091 17] | 75.7% | 75.6% | 35.4 | 191.5 |  |  |  |  |  | 
12 | CCN(CC)c1ccc(/C=N/NC(=O)c2cccs2)c(O)c1 [IPK 000 103 76] | 74.5% | 85.7% | −1.7 | 47.8 |  |  |  |  |  | 
13 | Oc1c(Cl)cc(Cl)cc1C(=S)Nc1ccccc1 [IPK 000 042 78] | 91.7% | 73.9% | 33.0 | 194.5 |  |  |  |  |  | 
14 | O=C(Nc1cc(Cl)cc(Cl)c1)c1ccc([N+](=O)[O-])cc1Cl [IPK 000 049 03] | 48.6% | 62.6% | 56.0 | 205.3 |  |  |  |  |  | 
15 | CC/C(Cc1ccccc1)=N\NC(=O)c1ccncc1 [IPK 000 078 86] | 108% | 96.9% | 88.3 | 462.0 |  |  |  |  |  | 
16 | Cc1ccc(NC(=O)c2ccc([N+](=O)[O-])cc2Cl)cc1Cl [IPK 000 047 16] | 85.1% | 69.4% | 77.9 | 280.5 |  |  |  |  |  | 
